From ChEMBL document CHEMBL1153369, “First asymmetric synthesis of CJ-14877 and its enantiomer and their interleukin-1beta inhibitory activities” (2009)

Assays:
Format in all cases: functional
PBMC [1] = assay: Inhibition of LPS-induced IL1-beta production in human PBMC at 0.1 uM after 24 hrs by ELISA
PBMC [2] = assay: Inhibition of LPS-induced IL1-beta production in human PBMC at 10 uM after 24 hrs by ELISA
PBMC [3] = assay: Inhibition of LPS-induced IL1-beta production in human PBMC at 0.01 uM after 24 hrs by ELISA
PBMC [4] = assay: Inhibition of LPS-induced IL1-beta production in human PBMC at 1.0 uM after 24 hrs by ELISA

With `COC(=O)c1ccc([C@H](O)[C@H](C)O)cn1` the inhibition at 0.1 µM (PBMC [1]) was 13.8%, the inhibition at 10 µM (PBMC [2]) was 49.8% and the inhibition at 0.01 µM (PBMC [3]) was -9.5%. The inhibition at 1 µM (PBMC [4]) was 39.6%.

Work on `COC(=O)c1ccc([C@@H](O)[C@@H](C)O)cn1` yielded an inhibition at 0.1 µM (PBMC [1]) of 4.3%, an inhibition at 10 µM (PBMC [2]) of -7.5% and an inhibition at 0.01 µM (PBMC [3]) of 9.1%. It also gave an inhibition at 1 µM (PBMC [4]) of 10.6%.
